Test results as given in ChEMBL document CHEMBL1150997, “Novel compound stimulates amylase induction in barley seeds” (Bioorg Med Chem Lett, 1994).

What was measured:
Type in all cases: functional
[1] = tested on: Hordeum vulgare subsp. vulgare; experiment: Amylase induction activity in barley aleurone layer at 0.1 uM
[2] = tested on: Hordeum vulgare subsp. vulgare; experiment: Amylase induction activity in barley aleurone layer at 1 uM
[3] = tested on: Hordeum vulgare subsp. vulgare; experiment: Amylase induction activity in barley aleurone layer at 0.01 uM

Activity [1]: 1
Activity [2]: 4
Activity [3]: 0
SMILES: CC1=C(C(=O)O)[C@H]2[C@@H](C(C)C)CC[C@]1(C)[C@H]2CO
